Target: T1, PI3Kα (p110α) (Homo sapiens, UniProt P42336)
T1 construct: gene PIK3CA; N-6*His tag-TEV site-p85α (318–615) - GSPGISGGGGG-full length p110α fusion protein; with p85α (318–615), PIK3R1
Test: X-ray co-crystal structure (apo crystals soaked); IC50 from PI3K HTRF assay on purified enzyme
Type: biochemical
From the text: X-ray co-crystal structure (apo crystals soaked); IC50 from PI3K HTRF assay on purified enzyme on PI3Kα (p110α) | The crystal structure of PI3Kα–YXY-4F verified that the compound YXY-4F bound to the ATP-binding pocket

T1 sequence (P42336 whole entry, the tested form may be a part): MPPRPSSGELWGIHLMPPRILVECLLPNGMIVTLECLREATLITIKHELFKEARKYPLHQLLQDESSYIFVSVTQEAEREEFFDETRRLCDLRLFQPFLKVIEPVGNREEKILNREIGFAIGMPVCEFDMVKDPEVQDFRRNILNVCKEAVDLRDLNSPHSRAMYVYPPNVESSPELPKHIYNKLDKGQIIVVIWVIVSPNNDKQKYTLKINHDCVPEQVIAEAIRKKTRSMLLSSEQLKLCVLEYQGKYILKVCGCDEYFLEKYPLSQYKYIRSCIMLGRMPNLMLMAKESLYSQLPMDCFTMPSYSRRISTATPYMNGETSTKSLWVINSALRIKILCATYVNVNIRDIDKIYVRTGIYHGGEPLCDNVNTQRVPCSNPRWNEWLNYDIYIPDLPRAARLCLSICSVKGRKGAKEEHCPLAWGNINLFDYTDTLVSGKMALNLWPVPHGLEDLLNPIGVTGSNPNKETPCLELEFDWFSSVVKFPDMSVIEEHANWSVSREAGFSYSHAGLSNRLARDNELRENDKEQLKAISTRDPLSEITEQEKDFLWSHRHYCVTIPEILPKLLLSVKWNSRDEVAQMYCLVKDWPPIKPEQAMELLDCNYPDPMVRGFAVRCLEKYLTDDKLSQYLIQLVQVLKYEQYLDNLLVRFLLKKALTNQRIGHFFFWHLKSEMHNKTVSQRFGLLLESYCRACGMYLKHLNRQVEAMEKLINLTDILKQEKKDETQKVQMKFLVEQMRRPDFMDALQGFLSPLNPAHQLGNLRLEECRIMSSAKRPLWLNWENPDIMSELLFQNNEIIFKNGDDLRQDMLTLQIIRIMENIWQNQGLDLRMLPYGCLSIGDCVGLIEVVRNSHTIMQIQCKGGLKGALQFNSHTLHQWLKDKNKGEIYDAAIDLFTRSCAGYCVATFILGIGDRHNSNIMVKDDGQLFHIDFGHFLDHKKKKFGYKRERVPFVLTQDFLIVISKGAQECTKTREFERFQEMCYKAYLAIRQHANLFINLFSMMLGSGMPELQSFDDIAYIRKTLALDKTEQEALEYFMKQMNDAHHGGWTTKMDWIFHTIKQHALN
T1 sequence (P27986 318-615 partner): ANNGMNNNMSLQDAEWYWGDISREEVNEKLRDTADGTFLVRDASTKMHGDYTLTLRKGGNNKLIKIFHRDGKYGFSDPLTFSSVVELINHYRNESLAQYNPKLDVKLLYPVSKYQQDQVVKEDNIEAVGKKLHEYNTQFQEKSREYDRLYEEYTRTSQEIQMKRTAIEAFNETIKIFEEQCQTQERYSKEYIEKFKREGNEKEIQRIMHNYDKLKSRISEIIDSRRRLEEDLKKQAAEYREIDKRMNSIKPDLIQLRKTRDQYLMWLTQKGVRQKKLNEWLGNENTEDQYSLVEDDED

IC50: 1.02 ± 0.005 µM
SMILES: Oc1cc(NCc2ccc(F)cc2)cc(-c2nc(N3CCOCC3)c3sccc3n2)c1 [YXY-4F]

— paper PMC5674032, “New Insights into PI3K Inhibitor Design using X-ray Structures of PI3Kα Complexed with a Potent Lead Compound” (Scientific Reports, 2017)
